Assay results as given in patent US11679107B2 (Eisai R&D Management Co., Ltd., priority 2018, dated 2023).
Like-named read-outs stand apart in the source and are kept apart here.

Assays:
SF3b complexes = target: T1, SF3b complexes (Homo sapiens, UniProt O75533+Q7RTV0); assay: Scintillation proximity assay (SPA) with [3H]-labelled pladienolide probe; format: binding; settings: SF3B1 (WT); geometric mean; read-out: SPA-ATS GMean IC50 (nM) SF3B1 (WT)
T1 construct: endogenous in cells; host or cells: Nuclear extracts; A HeLa S3 extract preparation is described for the in vitro splicing assay
Method in brief: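 SF3b complexes captured from nuclear extracts on anti-SF3B1 antibody SPA beads; test compounds pre-incubated 30 min before 2.5 nM [3H]-pladienolide probe added, then 30 min incubation. Bound probe read by scintillation; values from non-linear regression of concentration–response curves.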

[1] = system: Ad2 variant pre-mRNAs spliced in HeLa S3 nuclear extracts; assay: In vitro splicing assay (IVS), RT-qPCR of spliced product; format: biochemical; settings: for IC50: geometric mean; for Ratio Ad2.1/2.2: ratio of IVS IC50 Ad2.1 to Ad2.2
Method in brief: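 Ad2 variant pre-mRNA (2 ng) with FTZΔi control RNA in HeLa S3 nuclear extract (8 μg) was pre-incubated with compound or DMSO for 15 min at 30 °C. Splicing ran 90 min at 30 °C after adding 0.5 mM ATP, creatine phosphate and MgCl2. Spliced product was quantified by TaqMan RT-qPCR, normalized to DMSO, and curve-fitted.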

[2] = system: NCI-H1568 cells (high MCL1); assay: Cell proliferation and viability, CellTiter-Glo, 72 hours; format: cell-based; settings: for GI50: geometric mean
Method in brief: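 Cells grown in RPMI-1640 with 10% FBS (Panc 05.04 with added insulin, 15% FBS total) were exposed to an 11-point half-log dilution, typically 10 μM–100 pM, at 0.1% DMSO for 72 h at 37 °C. ATP content was read by CellTiter-Glo luminescence. Percent inhibition was set against a time-zero plate and DMSO vehicle wells, on a −100% (cidal) to 100% (uninhibited growth) scale.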

[3] = Ad2.1 pre-mRNA substrate, read-out: qPCR-IVS-ATS GMean IC50 (nM) Ad2.1
[4] = Ad2.2 pre-mRNA substrate, read-out: qPCR-IVS-ATS GMean IC50 (nM) Ad2.2
[5] = 72 h, NCIH1568.1, -100% = cidal, 0% = static, 100% = uninhibited growth
[6] = NCI-H1568, read-out: CTGlo-ATS GMean GI50 (nM) 72 h NCIH1568.1, 72 h, NCIH1568.1
[7] = NCI-H1568, 72 h, read-out: CTGlo-ATS GMean GI50 (nM) 72 h NCIH1568.1, NCIH1568.1 cells, 72 h
[8] = NCIH1568.1 cells, 72 h, −100% cidal, 0% static, 100% maximal growth
[9] = NCI-H1568, read-out: CTGlo-ATS GMean GI50 (nM) 72 h NCIH1568.1, NCIH1568.1 cells, 72 h
[10] = NCI-H1568, 72 h, read-out: CTGlo-ATS GMean GI50 (nM) 72 h NCIH1568.1, 72 h, NCIH1568.1

Structure (SMILES)	IC50 (SF3b complexes)	IC50 [1, 3]	IC50 [1, 4]	Ratio Ad2.1/2.2 [1]	CTGlo-ATS Mean MinResponse % 72 h NCIH1568.1 [2, 5]	GI50 [2, 6]	GI50 [2, 7]	CTGlo-ATS Mean MinResponse % 72 h NCIH1568.1 [2, 8]	GI50 [2, 9]	GI50 [2, 10]
C/C(=C\c1cc(F)cc(N2CCN(C(=O)Cn3cccn3)CC2)c1)[C@H]1OC(=O)C[C@H](O)CC[C@H](C)[C@@H](OC(=O)N2CCNC(=O)C2)/C=C/[C@@H]1C [Compound 230, [(2S,3S,4E,6R,7S,10R)-2-[(E)-1-[3-fluoro-5-[4-(2-pyrazol-1-ylacetyl)piperazin-1-yl]phenyl]prop-1-en-2-yl]-10-hydroxy-3,7-dimethyl-12-oxo-1-oxacyclododec-4-en-6-yl] 3-oxopiperazine-1-carboxylate]	12.9 nM	11.7 nM	10.9 nM	1.078	−69.108%	15.9 nM				
CCN(c1cc(F)cc(/C=C(\C)[C@H]2OC(=O)C[C@H](O)CC[C@H](C)[C@@H](OC(=O)N3CCN(C)CC3)/C=C/[C@@H]2C)c1)C1CCN(S(C)(=O)=O)CC1 [Compound 175]	5.83 nM	9.5 nM	8.12 nM				9.49 nM	−99.134%		
C/C(=C\c1cc(F)cc(N(C)C2CCN(C(=O)c3cnccn3)CC2)c1)[C@H]1OC(=O)C[C@H](O)CC[C@H](C)[C@@H](OC(=O)N2CCN(C)CC2)/C=C/[C@@H]1C [Compound 189]	6.8 nM	16.9 nM	10.3 nM					−76.052%	9.53 nM	
CCC(=O)N1CCC(N(C)c2cc(F)cc(/C=C(\C)[C@H]3OC(=O)C[C@H](O)CC[C@H](C)[C@@H](OC(=O)N4CCN(C)CC4)/C=C/[C@@H]3C)c2)CC1 [Compound 178]	2.16 nM	20.4 nM	4.31 nM					−77.714%	6.85 nM	
CCCNC(=O)N1CCC(N(C)c2cc(F)cc(/C=C(\C)[C@H]3OC(=O)C[C@H](O)CC[C@H](C)[C@@H](OC(=O)N4CCN(C)CC4)/C=C/[C@@H]3C)c2)CC1 [Compound 192]	3.85 nM	14.1 nM	10.3 nM				7.49 nM	−75.900%		
C/C(=C\c1cc(F)cc(N2CCN(C(=O)Cn3cccn3)CC2)c1)[C@H]1OC(=O)C[C@H](O)CC[C@H](C)[C@@H](OC(=O)N2CCN(Cc3cccc(O)c3)CC2)/C=C/[C@@H]1C [Compound 251, [(2S,3S,4E,6R,7S,10R)-2-[(E)-1-[3-fluoro-5-[4-(2-pyrazol-1-ylacetyl)piperazin-1-yl]phenyl]prop-1-en-2-yl]-10-hydroxy-3,7-dimethyl-12-oxo-1-oxacyclododec-4-en-6-yl] 4-[(3-hydroxyphenyl)methyl]piperazine-1-carboxylate]	52.4 nM	49.7 nM	28.1 nM	1.765	−87.236%	13.4 nM				
C/C(=C\c1cc(F)cc(N2CCN(C(=O)Cn3cccn3)CC2)c1)[C@H]1OC(=O)C[C@H](O)CC[C@H](C)[C@@H](OC(=O)N2CCN(c3ccncc3)CC2)/C=C/[C@@H]1C [Compound 237, [(2S,3S,4E,6R,7S,10R)-2-[(E)-1-[3-fluoro-5-[4-(2-pyrazol-1-ylacetyl)piperazin-1-yl]phenyl]prop-1-en-2-yl]-10-hydroxy-3,7-dimethyl-12-oxo-1-oxacyclododec-4-en-6-yl] 4-pyridin-4-ylpiperazine-1-carboxylate]	8.37 nM	18.6 nM	9.33 nM	1.989	−78.619%					12 nM
COc1ccc(CNC(=O)O[C@H]2/C=C/C(C)C(/C(C)=C/c3cc(F)cc(N4CCN(C(=O)Cn5cccn5)CC4)c3)OC(=O)CC(O)CC[C@@H]2C)cc1 (stereo in doubt) [Compound 226, [(2R,3R,4E,6R,7S,10S)-2-[(E)-1-[3-fluoro-5-[4-(2-pyrazol-1-ylacetyl)piperazin-1-yl]phenyl]prop-1-en-2-yl]-10-hydroxy-3,7-dimethyl-12-oxo-1-oxacyclododec-4-en-6-yl] N-[(4-methoxyphenyl)methyl]carbamate]	1.17 nM	8.74 nM	102 nM	0.086	−64.963%	34.7 nM				
C/C(=C\c1cc(F)cc(N(C)C2CCN(S(=O)(=O)C3CCCC3)CC2)c1)[C@H]1OC(=O)C[C@H](O)CC[C@H](C)[C@@H](OC(=O)N2CCN(C)CC2)/C=C/[C@@H]1C [Compound 183]	66.3 nM	713 nM	20.3 nM				53.6 nM	−66.270%		
C/C(=C\c1cc(F)cc(N(C)C2CCN(C(=O)c3cnco3)CC2)c1)[C@H]1OC(=O)C[C@H](O)CC[C@H](C)[C@@H](OC(=O)N2CCN(C)CC2)/C=C/[C@@H]1C [Compound 188]	2.61 nM	7.41 nM	5.63 nM					−79.922%	2.77 nM	
C/C(=C\c1cc(F)cc(N2CCN(C(=O)Cn3cccn3)CC2)c1)[C@H]1OC(=O)C[C@H](O)CC[C@H](C)[C@@H](OC(=O)N(C)CCc2ccc(O)cc2)/C=C/[C@@H]1C [Compound 239, [(2S,3S,4E,6R,7S,10R)-2-[(E)-1-[3-fluoro-5-[4-(2-pyrazol-1-ylacetyl)piperazin-1-yl]phenyl]prop-1-en-2-yl]-10-hydroxy-3,7-dimethyl-12-oxo-1-oxacyclododec-4-en-6-yl] N-[2-(4-hydroxyphenyl)ethyl]-N-methylcarbamate]	150 nM	103 nM	48 nM	2.151	−77.758%					63.5 nM
C/C(=C\c1cc(F)cc(N2CCN(C(=O)CCO)CC2)c1)[C@H]1OC(=O)C[C@H](O)CC[C@H](C)[C@@H](OC(=O)N2CCN(C)CC2)/C=C/[C@@H]1C [Compound 155]	2.21 nM	8.45 nM	5.88 nM					−83.475%	1.91 nM	
COCCn1nnc2c(F)cc(/C=C(\C)[C@H]3OC(=O)C[C@H](O)CC[C@H](C)[C@@H](OC(=O)N4CCN(C)CC4)/C=C/[C@@H]3C)cc21 [Compound 159]	1.84 nM	88.3 nM	10.2 nM					−65.047%	3.45 nM	
COc1ccc(-n2nnc3c(F)cc(/C=C(\C)[C@H]4OC(=O)C[C@H](O)CC[C@H](C)[C@@H](OC(=O)N5CCN(C)CC5)/C=C/[C@@H]4C)cc32)cc1 [Compound 165]	18.7 nM	29.5 nM	15.2 nM					−78.159%	10 nM	
C/C(=C\c1cc(F)cc(N(C)C2CCN(C(=O)Nc3ccccc3)CC2)c1)[C@H]1OC(=O)C[C@H](O)CC[C@H](C)[C@@H](OC(=O)N2CCN(C)CC2)/C=C/[C@@H]1C [Compound 193]	127 nM	47.8 nM	19.6 nM					−89.438%	17.2 nM	
C/C(=C\c1cc(F)cc(N2CCN(C(=O)Cn3cccn3)CC2)c1)[C@H]1OC(=O)C[C@H](O)CC[C@H](C)[C@@H](OC(=O)NCCN(C)C)/C=C/[C@@H]1C [Compound 224, [(2S,3S,4E,6R,7S,10R)-2-[(E)-1-[3-fluoro-5-[4-(2-pyrazol-1-ylacetyl)piperazin-1-yl]phenyl]prop-1-en-2-yl]-10-hydroxy-3,7-dimethyl-12-oxo-1-oxacyclododec-4-en-6-yl] N-[2-(dimethylamino)ethyl]carbamate]	3.14 nM	41.1 nM	5.88 nM	6.991	−61.875%					16.4 nM
C/C(=C\c1cc(F)cc(N2CCN(C(=O)Cn3cccn3)CC2)c1)[C@H]1OC(=O)C[C@H](O)CC[C@H](C)[C@@H](OC(=O)N2CCN(C3CCCCC3)CC2)/C=C/[C@@H]1C [Compound 238, [(2S,3S,4E,6R,7S,10R)-2-[(E)-1-[3-fluoro-5-[4-(2-pyrazol-1-ylacetyl)piperazin-1-yl]phenyl]prop-1-en-2-yl]-10-hydroxy-3,7-dimethyl-12-oxo-1-oxacyclododec-4-en-6-yl] 4-cyclohexylpiperazine-1-carboxylate]	18.1 nM	32.2 nM	68.1 nM	0.473	−88.447%					5.79 nM
